Laboratory results published in patent US8754051B2, “Peptide modulators of the δPKC interaction with the d subunit of F1Fo ATP synthase/ATPase and uses thereof” (Georgia Regents Research Institute, Inc., priority 2009, dated 2014).
Peptide text beside a SMILES is read from it.

Experiments:
[1] = system: myocardial ATP levels; assay: Myocardial ATP levels in hearts of streptozotocin-treated rats; settings: hearts 6 weeks after STZ injection (50 mg/kg)
[2] = system: mitochondrial δPKC levels; assay: Mitochondrial δPKC levels (Western blot) in hearts of streptozotocin-treated rats; settings: hearts 6 weeks after STZ injection (50 mg/kg)
[3] = target: T1, δPKC-dF1Fo co-IP (Rattus norvegicus, UniProt P09215); assay: δPKC co-immunoprecipitation with dF1Fo in NCM mitochondria after phorbol ester; format: cell-based; settings: 100 nM 4-β PMA, 20 min, NCMs
T1 construct: endogenous in cells; host or cells: neonatal rat cardiac myocytes (NCMs), isolated mitochondria
T1 sequence (P09215 whole entry): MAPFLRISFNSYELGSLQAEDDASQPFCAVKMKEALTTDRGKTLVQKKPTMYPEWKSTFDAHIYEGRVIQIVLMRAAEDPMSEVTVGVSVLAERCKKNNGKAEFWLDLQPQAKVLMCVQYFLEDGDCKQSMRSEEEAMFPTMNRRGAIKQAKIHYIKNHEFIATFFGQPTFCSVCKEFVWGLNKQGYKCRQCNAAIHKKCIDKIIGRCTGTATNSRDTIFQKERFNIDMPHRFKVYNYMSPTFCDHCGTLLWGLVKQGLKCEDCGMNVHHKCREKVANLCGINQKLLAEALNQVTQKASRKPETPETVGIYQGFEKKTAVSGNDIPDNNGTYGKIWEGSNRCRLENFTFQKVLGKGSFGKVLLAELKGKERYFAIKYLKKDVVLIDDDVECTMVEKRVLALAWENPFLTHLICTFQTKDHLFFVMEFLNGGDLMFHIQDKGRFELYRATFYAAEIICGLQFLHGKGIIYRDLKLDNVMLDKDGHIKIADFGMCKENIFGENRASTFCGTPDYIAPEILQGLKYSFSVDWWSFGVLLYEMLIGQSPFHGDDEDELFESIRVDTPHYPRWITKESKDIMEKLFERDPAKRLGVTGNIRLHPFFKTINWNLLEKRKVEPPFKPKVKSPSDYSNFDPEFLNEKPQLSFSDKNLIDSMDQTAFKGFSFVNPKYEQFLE
T1 sequence (P31399 2-161 partner limits assumed): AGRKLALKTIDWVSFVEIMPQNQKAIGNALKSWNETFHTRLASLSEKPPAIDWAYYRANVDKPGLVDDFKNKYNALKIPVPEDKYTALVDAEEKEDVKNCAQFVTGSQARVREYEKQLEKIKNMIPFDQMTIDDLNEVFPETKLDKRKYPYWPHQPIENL
Method: FIGS. 1A-1B: Delta protein kinase C (δPKC) co-immunoprecipitates (co-IPs) with the “d” subunit of F1Fo ATP synthase (dF1Fo) following 100 nM 4-β PMA treatment. Neonatal cardiac myocytes (NCMs) were treated with 100 nM 4-α PMA (0 nM in Figure), 3 nM 4-β PMA for 1 hr. or 100 nM 4-β PMA for 20 min. Mitochondria were isolated using Percoll/Optiprep density gradients and then subjected to immunoprecipitations using antisera to dF1Fo. IPs were resolved by […] and transferred onto nitrocellulose paper (NCP) followed by Western blot analyses using antisera against αPKC, δPKC, εPKC and ζPKC. FIG. 1A, representative autoradiographs for each PKC isozyme are shown. FIG. 1B, mean±S.E. densitometry values for three independent myocyte preparations. Asterisks indicate significant differences between 4-α PMA and 3 nM or 100 nM 4-β PMA (p<0.05). # indicates statistically significant differences between 3 and 100 nM 4-β PMA (p<0.05).
Phorbol esters such as 4-β phorbol 12-myristate-13-acetate (4-β PMA), are well known activators of most PKC isozymes and should be useful in determining if one or more PKC isozymes induced effects on the F1Fo complex. […] In FIG. 1, 4-α PMA is shown as “0” concentration and […] values are reported for 3-100 nM concentrations. IPs were next subjected to Western blot analyses with anti-PKC isozyme-selective antisera. […]

[4] = target: T2, δPKC binding to dF1Fo (Rattus norvegicus, UniProt P09215); assay: PKC overlay binding assay; settings: overlay with purified PKC isozymes, DG/PS; read-out: IC50 for modulation of δPKC-dF1Fo binding
T2 construct: with purified rat brain PKC (mixture of PKC isozymes); from tissue; host or cells: PKC from rat brain; F1Fo ATPase holo-enzyme from adult rat cardiac ventricle
T2 sequence (P09215 whole entry): as the sequence (P09215 whole entry) above

[5] = system: isolated rat hearts, ischemia/reperfusion injury; assay: Infarct size (TTC staining) after ischemia/reperfusion in isolated rat hearts
Method: Hearts were excised from 2 month-old Sprague-Dawley rats and subjected to Langendorff-mode perfusion with oxygenated Kreb's buffer. Following a 20 min equilibration to attain stable beating hearts either were perfused continuously for 110 minutes (Con) or were subjected to 20 minutes of global no-flow ischemia and then 90 minutes of oxygenated reperfusion (IR). For groups receiving the δPKC-dF1Fo inhibitor or facilitator peptides (complete amino acid sequences shown in FIG. 13) 20 nM concentrations of the peptides were given at the onset of the 90 minute reperfusion period for 20 minutes. At the termination of experimentation atria were removed and ventricles were rapidly washed in chilled Kreb's buffer and partially frozen to facilitate cutting the hearts into sections. […]
Histograms represent mean±S.E. infarction expressed as a percentage of the entire left ventricular area. […]
The effects of the peptides of the present invention on infarct size following IR injury in the Langendorff model was assessed, Hearts were perfused in the absence of peptide, under normoxic conditions for 110 minutes (Con), or were given a 20 minute global, no flow, ischemia exposure followed by normoxic perfusion for 90 minutes. δPKC-dF1Fo modulatory peptides (20 nM) were administered at the onset of reperfusion for 20 minutes. […]

CN(N=O)C(=O)N[C@H]1C(O)O[C@H](CO)[C@@H](O)[C@@H]1O (mixture of isomers) [STZ, streptozotocin]
decrease of myocardial ATP levels [1]: 2.3±0.1 fold
increase in mitochondrial δPKC levels [2]: greater than 10 fold

CCCCCCCCCCCCCC(=O)O[C@@H]1[C@@H](C)[C@@]2(O)[C@@H](C=C(CO)C[C@]3(O)C(=O)C(C)=C[C@@H]23)[C@@H]2C(C)(C)[C@]12OC(C)=O [4-β PMA, 4-β phorbol 12-myristate-13-acetate]
increase of δPKC-dF1Fo co-IP above 3 nM 4-β PMA-induced levels [3]: 3.4±0.3 fold

CC[C@H](C)[C@H](NC(=O)[C@@H](NC(=O)[C@H](CCCCN)NC(=O)[C@H](CC(C)C)NC(=O)[C@H](C)NC(=O)[C@H](CC(C)C)NC(=O)[C@H](CCCCN)NC(=O)[C@H](CCCNC(=N)N)NC(=O)CNC(=O)[C@H](C)N)[C@@H](C)O)C(=O)N[C@@H](CC(=O)O)C(=O)N[C@@H](Cc1c[nH]c2ccccc12)C(=O)N[C@H](C(=O)N[C@@H](CO)C(=O)N[C@@H](Cc1ccccc1)C(=O)O)C(C)C [SEQ ID NO: 1, AGRKLALKTIDWVSF] (H-AGRKLALKTIDWVSF-OH; N-terminus and C-terminus assumed)
IC50 [4]: ~300 µM

CC[C@H](C)[C@H](NC(=O)[C@H](CCSC)NC(=O)[C@H](CC(N)=O)NC(=O)[C@H](CCCCN)NC(=O)[C@@H](NC(=O)[C@H](CCCCN)NC(=O)[C@H](CCC(=O)O)NC(=O)[C@H](CC(C)C)NC(=O)[C@H](CCC(N)=O)NC(=O)[C@H](CCCCN)NC(=O)[C@H](CCC(=O)O)NC(=O)[C@H](Cc1ccc(O)cc1)NC(=O)[C@H](CCC(=O)O)NC(=O)[C@H](CCCNC(=N)N)NC(=O)[C@@H](NC(=O)[C@@H](N)CCCNC(=N)N)C(C)C)[C@@H](C)CC)C(=O)O [SEQ ID NO: 2, RVREYEKQLEKIKNMI] (H-RVREYEKQLEKIKNMI-OH; N-terminus and C-terminus assumed)
IC50 [4]: ~300 µM

YGRKKRRQRRR-MLATRALSLIGKRAISTSVC-RVRE YEKQLEKIKNMI-DYKDDDDK (YGRKKRRQRRRMLATRALSLIGKRAISTSVCRVREYEKQLEKIKNMIDYKDDDDK; sequence of mitochondrial-targeted facilitator of dPKC-dF1Fo interaction) [PKC-dF1Fo agonist peptide]
enhancement of infarction [5]: 27±3%
